In patent publication US20140295402A1, “METHODS AND MATERIALS FOR PROLONGING USEFUL STORAGE OF RED BLOOD CELL PREPARATIONS AND PLATELET PREPARATIONS” (priority 2011, published 2014):

Experiments:
[1] = test system: platelets in platelet-rich plasma (PRP); assay: Platelet aggregation of PRP by optical aggregometry after equilibration with 99% CO2; type: cell-based, human
Method: Fresh human whole blood was drawn into 3.2% sodium citrate, and platelet-rich plasma (PRP) was prepared. Control citrated PRP was stored at room temperature in a polypropylene tube. CO2 was exposed to the air/fluid interface of PRP using a 99.9% CO2 tank. CO2 was administered for approximately 60 seconds during which time the pH dropped from an average value of 7.4 to 6.4.
Using a Chronolog 700 platelet aggregometer, platelet aggregation was performed pre- and post-CO2 to ADP, AA, and Epi. Platelet aggregometry was carried out as described elsewhere (Born and Cross, J. Physiol., 168:178-195 (1963)). The assay was performed at 37° C. with a sample stir speed of 1200 r.p.m. Each sample consisted of 450 μL platelet rich plasma.
In another study, the impact of CO2 on platelet function was explored by equilibrating platelet-rich plasma (PRP) with 99% CO2. The PRP was prepared by low-speed centrifugation of blood anticoagulated with 3.2% sodium citrate and kept in capped polypropylene tubes. Platelet function was measured by optical aggregometry with ADP and epinephrine as triggers. Equilibration with CO2 under a positive flow of gas was monitored by the fall in pH from 7.2 to 6.4, which typically occurs within 60 seconds. Degassing of CO2 by a flow of room air over the PRP was verified by the return to pH 7.2. Immediately after removal of the PRP from the CO2 atmosphere, aggregation to ADP and epinephrine was suppressed (FIG. 18, first set). When the samples had returned to pH 7.2, aggregation to both triggers was restored (FIG. 18, center set).

platelets = assay: ATP secretion of platelets induced with 1 μM thrombin (Zylux luminometer); type: cell-based, human; details: after 24 hours storage at room temperature
Method: ATP secretion was performed using a Zylux luminometer where the secretion was induced using 1 μM thrombin. […] However, the CO2 treated platelets had approximately 80% of baseline secretion after 24 hours storage.

[2] = test system: red blood cell preparation; assay: Storage of red blood cell preparations in blood bags with CO2: pCO2, lactate, glucose and pH levels; type: cell-based; details: for Glucose / Lactate: red blood cell preparation
Method: Red blood cells were collected and processed using standard techniques and stored in standard blood bags. Prior to collecting the red blood cells, an empty blood bag containing anti-coagulated citrate phosphate dextrose with adenine (AS1) was flushed with CO2 for one minute. The collection bag was then filled with blood from a donor. Next, 50 cubic centimeters of CO2 were added to the bag via the sterile docking port. The bag was gently inverted for 30 seconds and then placed upright. Using an empty syringe, the 50 cubic centimeters of air/CO2 was removed from the bag through the sterile docking port. The controls were red blood cell preparations placed in blood bags not flushed with CO2 and not exposed to 50 cubic centimeters of CO2.
The control and CO2 treated red blood cell preparations were tested for pCO2 (or pO2) levels, lactate levels, glucose levels, and pH levels at days 0, 14, and 21 (Table 1). […] This fall in pH is reversible, and pH levels can return to normal values of […] when normal pCO2 levels (e.g., 40-60 mmHg) are re-established.

Pseudomonas aeruginosa = assay: Bacterial growth in spiked PRP, quantitative culture after 30 hours; type: cell-based; details: PRP spiked with 10 CFU, approximately 30 hours at room temperature
Method: (§1) Clinical isolates of Bacillus cereus and Pseudomonas aeruginosa were spiked into control and CO2 treated platelets at a concentration of 10 CFU (i.e., 10 bacteria total, not 10 CFU/mL). The platelets were stored for approximately 30 hours at room temperature on a platelet agitator. After 30 hours, quantitative culture was performed on serial dilutions of the platelet sample on 5% sheep blood agar plates.

Bacillus cereus [3] = assay: as above; type: cell-based; details: PRP spiked with 10 CFU, approximately 30 hours at room temperature
Method: as §1

Enterobacter cloacae = assay: Bacterial growth in inoculated apheresis platelet unit, quantitative culture; type: cell-based; details: platelets exposed to 99% CO2 for 10 minutes
Method: (§2) Outdated apheresis platelet unit (day 6) was obtained from the Mayo Clinic components laboratory. About half of the platelet unit was perfused with 99% CO2 gas for 10 minutes with mixing. Control samples without CO2 exposure and CO2-treated samples of 10 mL volume were inoculated with clinical isolates of eight different organisms. Control and CO2 samples were spiked with identical bacterial loads. Quantitative culture using 5% sheep blood agar plates was conducted immediately following inoculation (0 hours) and at 24 and 48 hour time points. Time 0 hour inoculation load was selected to compensate for observed “spike and die” in outdated apheresis platelet units. The time 0 hour value represented the value of the initial spike.

Corynebacterium = assay: as above; type: cell-based; details: platelets exposed to 99% CO2 for 10 minutes
Method: as §2

S. aureus = assay: as above; type: cell-based; details: platelets exposed to 99% CO2 for 10 minutes
Method: as §2

Bacillus cereus [4] = assay: as above; type: cell-based; details: platelets exposed to 99% CO2 for 10 minutes
Method: as §2

E. coli = assay: as above; type: cell-based; details: platelets exposed to 99% CO2 for 10 minutes
Method: as §2

S. epidermidis = assay: as above; type: cell-based; details: platelets exposed to 99% CO2 for 10 minutes
Method: as §2

Klebsiella oxytoca = assay: as above; type: cell-based; details: platelets exposed to 99% CO2 for 10 minutes
Method: as §2

S. pyogenes = assay: as above; type: cell-based; details: platelets exposed to 99% CO2 for 10 minutes
Method: as §2

[5] = storage with CO2, compared to controls

With O=C=O [CO2] the aggregation ([1]; after 24 hours under CO2) was “equivalent to that of controls”, the “aggregation to ADP and epinephrine” value ([1]; after samples had returned to pH 7.2) was “restored” and the “aggregation to ADP and epinephrine” value ([1]; immediately after removal of the PRP from the CO2 atmosphere) was “suppressed”. The “ATP secretion, of baseline” value (platelets) was “approximately 80%”, the Glucose ([2]; day 0 of storage) was 571 mg/dL and the Lactate ([2]; day 0 of storage) was 1.2 µmol/mL. The Glucose ([2]; day 14 of storage) was 503 mg/dL, the Lactate ([2]; day 14 of storage) was 5 µmol/mL and the Glucose ([2]; day 21 of storage) was 478 mg/dL. The Lactate ([2]; day 21 of storage) was 5.3 µmol/mL, the glucose consumption [2, 5] was “inhibition” and the lactate formation [2, 5] was “inhibition”. For the same molecule, the bacterial growth (Pseudomonas aeruginosa) was “no growth”, the bacterial growth (Bacillus cereus [3]) was “no growth” and the bacterial growth (Enterobacter cloacae; 0 hours (initial spike)) was 1.22E+03 CFU/mL. It also gave a bacterial growth (Enterobacter cloacae; 24 hours) of 1.20E+06 CFU/mL, a bacterial growth (Enterobacter cloacae; 48 hours) of 8.60E+07 CFU/mL and a bacterial growth (Corynebacterium; 0 hours (initial spike)) of 7.90E+02 CFU/mL. It also gave a bacterial growth (Corynebacterium; 24 hours) of 2.70E+02 CFU/mL, a bacterial growth (Corynebacterium; 48 hours) of 4.20E+02 CFU/mL and a bacterial growth (S. aureus; 0 hours (initial spike)) of 1.17E+03 CFU/mL. For the same molecule, the bacterial growth (S. aureus; 24 hours) was 3.20E+03 CFU/mL, the bacterial growth (S. aureus; 48 hours) was 2.70E+04 CFU/mL and the bacterial growth (Bacillus cereus [4]; 0 hours (initial spike)) was 1.00E+01 CFU/mL. The bacterial growth (Bacillus cereus [4]; 24 hours) was “no”, the bacterial growth (Bacillus cereus [4]; 48 hours) was “no” and the bacterial growth (E. coli; 24 hours) was 1.80E+02 CFU/mL. It also gave a bacterial growth (E. coli; 48 hours) of 5.20E+03 CFU/mL, a bacterial growth (S. epidermidis; 0 hours (initial spike)) of 6.10E+02 CFU/mL and a bacterial growth (S. epidermidis; 24 hours) of 3.30E+02 CFU/mL. For the same molecule, the bacterial growth (S. epidermidis; 48 hours) was 4.20E+02 CFU/mL, the bacterial growth (Klebsiella oxytoca; 0 hours (initial spike)) was 8.10E+02 CFU/mL and the bacterial growth (Klebsiella oxytoca; 24 hours) was 1.15E+04 CFU/mL. The bacterial growth (Klebsiella oxytoca; 48 hours) was 4.30E+05 CFU/mL, the bacterial growth (S. pyogenes; 0 hours (initial spike)) was 1.55E+03 CFU/mL and the bacterial growth (S. pyogenes; 24 hours) was 1.20E+05 CFU/mL. For the same molecule, the bacterial growth (S. pyogenes; 48 hours) was 8.00E+07 CFU/mL.
